Source: patent publication US11446287B2, “Compounds and methods for EP300 or CBP modulation and indications therefor” (Opna Immuno-Oncology SA, priority 2019, dated 2022)

Each compound was assayed against T1, Recombinant human BRD4 containing dual bromodomains (BRD4-BD12 (1-477)) (Homo sapiens, UniProt O60885) (assay: BRD4 Alphascreen binding assay).
T1 construct: Recombinant human BRD4 containing dual bromodomains (BRD4-BD12 (1-477)); made in house; host or cells: E. coli BL21-CodonPlus (DE3), modified pET vector
Method in brief: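 AlphaScreen proximity between Ni-chelate-bound BRD4-BD12 (1-477) and streptavidin-captured H4 K5/K8/K12/K16-acetyl peptide measured after 1 h room-temperature compound incubation and 30 min with 7.5 μg/ml beads. Buffer: 50 mM HEPES pH 7.5, 50 mM NaCl, 0.01% BSA, 0.01% Triton X-100; data plate-normalized and four-parameter fit for IC50.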

SMILES | IC50 [µM]
Cc1noc(C)c1-c1cnc2c(c1)c(-c1ccc(C(N)=O)cc1)cn2C(c1ccccn1)C1CCCC1 (stereo not drawn) [P-0020, 4-(1-(cyclopentyl(pyridin-2-yl)methyl)-5-(3,5-dimethylisoxazol-4-yl)-1H-pyrrolo[2,3-b]pyridin-3-yl)benzamide] | 1 to 8
CNC(=O)c1ccc(-c2cn(C(c3ccccn3)C3CCCC3)c3ncc(-c4c(C)noc4C)cc23)cc1 (stereo not drawn) [P-0021, 4-(1-(cyclopentyl(pyridin-2-yl)methyl)-5-(3,5-dimethylisoxazol-4-yl)-1H-pyrrolo[2,3-b]pyridin-3-yl)-N-methylbenzamide] | 1 to 8
Cc1noc(C)c1-c1cnc2c(c1)c(-c1ccc(C#N)cc1)cn2C(c1ccccn1)C1CCCC1 (stereo not drawn) [P-0022, 4-(1-(cyclopentyl(pyridin-2-yl)methyl)-5-(3,5-dimethylisoxazol-4-yl)-1H-pyrrolo[2,3-b]pyridin-3-yl)benzonitrile] | 8 to 1000
Cc1noc(C)c1-c1cnc2c(c1)c(-c1ccc3c(c1)CNC3=O)cn2C(c1ccccn1)C1CCCC1 (stereo not drawn) [P-0023, 5-(1-(cyclopentyl(pyridin-2-yl)methyl)-5-(3,5-dimethylisoxazol-4-yl)-1H-pyrrolo[2,3-b]pyridin-3-yl)isoindolin-1-one] | 1 to 8
Cc1noc(C)c1-c1cnc2c(c1)c(-c1ccc(-c3nn[nH]n3)cc1)cn2C(c1ccccn1)C1CCCC1 (stereo not drawn) [P-0024, 4-(3-(4-(2H-tetrazol-5-yl)phenyl)-1-(cyclopentyl(pyridin-2-yl)methyl)-1H-pyrrolo[2,3-b]pyridin-5-yl)-3,5-dimethylisoxazole] | 8 to 1000
Cc1noc(C)c1-c1cnc2c(c1)c(-c1ccc(C(=O)O)c(F)c1)cn2C(c1ccccn1)C1CCCC1 (stereo not drawn) [P-0025, 4-(1-(cyclopentyl(pyridin-2-yl)methyl)-5-(3,5-dimethylisoxazol-4-yl)-1H-pyrrolo[2,3-b]pyridin-3-yl)-2-fluorobenzoic acid] | 1 to 8
Cc1noc(C)c1-c1cnc2c(c1)c(-c1ccc(C(=O)O)nc1)cn2C(c1ccccn1)C1CCCC1 (stereo not drawn) [P-0026, 5-(1-(cyclopentyl(pyridin-2-yl)methyl)-5-(3,5-dimethylisoxazol-4-yl)-1H-pyrrolo[2,3-b]pyridin-3-yl)picolinic acid] | 1 to 8
Cc1cc(-c2c(C(F)(F)F)n([C@@H](C)c3ccccn3)c3cc(-c4c(C)noc4C)cnc23)ccc1C(=O)O [P-0243, (S)-4-(6-(3,5-dimethylisoxazol-4-yl)-1-(1-(pyridin-2-yl)ethyl)-2-(trifluoromethyl)-1H-pyrrolo[3,2-b]pyridin-3-yl)-2-methylbenzoic acid] | 1 to 8
COc1cc(-c2c(C(F)(F)F)n([C@@H](C)c3ccccn3)c3cc(-c4c(C)noc4C)cnc23)ccc1C(=O)O [P-0244, (S)-4-(6-(3,5-dimethylisoxazol-4-yl)-1-(1-(pyridin-2-yl)ethyl)-2-(trifluoromethyl)-1H-pyrrolo[3,2-b]pyridin-3-yl)-2-methoxybenzoic acid] | 1 to 8
Cc1noc(C)c1-c1cnc2c(-c3cccc(C(=O)O)c3F)c(C(F)(F)F)n([C@@H](C)c3ccccn3)c2c1 [P-0245, (S)-3-(6-(3,5-dimethylisoxazol-4-yl)-1-(1-(pyridin-2-yl)ethyl)-2-(trifluoromethyl)-1H-pyrrolo[3,2-b]pyridin-3-yl)-2-fluorobenzoic acid] | 8 to 1000
Cc1noc(C)c1-c1cnc2c(-c3cccc(C(=O)O)c3C)c(C(F)(F)F)n([C@@H](C)c3ccccn3)c2c1 [P-0246, (S)-3-(6-(3,5-dimethylisoxazol-4-yl)-1-(1-(pyridin-2-yl)ethyl)-2-(trifluoromethyl)-1H-pyrrolo[3,2-b]pyridin-3-yl)-2-methylbenzoic acid] | 8 to 1000
Cc1noc(C)c1-c1cnc2c(-c3cccc(C(=O)O)c3Cl)c(C(F)(F)F)n([C@@H](C)c3ccccn3)c2c1 [P-0247, (S)-2-chloro-3-(6-(3,5-dimethylisoxazol-4-yl)-1-(1-(pyridin-2-yl)ethyl)-2-(trifluoromethyl)-1H-pyrrolo[3,2-b]pyridin-3-yl)benzoic acid] | 8 to 1000
